Numbers after ± are expanded uncertainties.
Tests used:
[1] = 298.15 K; 101.33 kPa; Liquid; Vibrating tube method
[2] = excess molar enthalpy (molar enthalpy of mixing); xn = mol fraction of the nth substance listed; details: 298.15 K, 101 kPa, Liquid, isothermal titration calorimeter

C[S+](C)[O-] [dimethyl sulfoxide]
Details | mass density [kg/m3]
[1] | 1095.32 ± 0.31

CCCCCC(=O)O [hexanoic acid] + CN(C)C=O
[2]
Details | excess molar enthalpy [kcal/mol]
x2 = 0.048 | -0.0576 ± 0.000956
x2 = 0.092 | -0.11 ± 0.00143
x2 = 0.132 | -0.158 ± 0.00215
x2 = 0.169 | -0.202 ± 0.00263
x2 = 0.203 | -0.243 ± 0.00311
x2 = 0.24 | -0.288 ± 0.00359
x2 = 0.274 | -0.328 ± 0.00406
x2 = 0.304 | -0.363 ± 0.00454
x2 = 0.333 | -0.394 ± 0.00502
x2 = 0.359 | -0.42 ± 0.00526
x2 = 0.383 | -0.442 ± 0.0055
x2 = 0.412 | -0.467 ± 0.00574
x2 = 0.439 | -0.484 ± 0.00598
x2 = 0.464 | -0.496 ± 0.00621
x2 = 0.486 | -0.503 ± 0.00621
x2 = 0.502 | -0.506 ± 0.00621
x2 = 0.516 | -0.506 ± 0.00621
x2 = 0.53 | -0.505 ± 0.00621
x2 = 0.543 | -0.503 ± 0.00621
x2 = 0.556 | -0.499 ± 0.00621
x2 = 0.568 | -0.494 ± 0.00621
x2 = 0.579 | -0.489 ± 0.00598
x2 = 0.589 | -0.483 ± 0.00598
x2 = 0.602 | -0.475 ± 0.00598
x2 = 0.613 | -0.467 ± 0.00574
x2 = 0.625 | -0.458 ± 0.00574
x2 = 0.635 | -0.449 ± 0.0055
x2 = 0.645 | -0.44 ± 0.0055
x2 = 0.656 | -0.43 ± 0.00526
x2 = 0.666 | -0.42 ± 0.00526
x2 = 0.676 | -0.409 ± 0.00502
x2 = 0.685 | -0.4 ± 0.00502
x2 = 0.694 | -0.39 ± 0.00478
x2 = 0.702 | -0.381 ± 0.00478
x2 = 0.71 | -0.372 ± 0.00454
x2 = 0.718 | -0.363 ± 0.00454
x2 = 0.726 | -0.352 ± 0.00454
x2 = 0.735 | -0.342 ± 0.0043
x2 = 0.743 | -0.332 ± 0.00406
x2 = 0.75 | -0.323 ± 0.00406
x2 = 0.757 | -0.314 ± 0.00406
x2 = 0.764 | -0.306 ± 0.00382
x2 = 0.77 | -0.298 ± 0.00382
x2 = 0.776 | -0.291 ± 0.00359
x2 = 0.782 | -0.283 ± 0.00359
x2 = 0.789 | -0.275 ± 0.00359
x2 = 0.794 | -0.268 ± 0.00335
x2 = 0.799 | -0.261 ± 0.00335
x2 = 0.812 | -0.241 ± 0.00311
x2 = 0.824 | -0.226 ± 0.00287
x2 = 0.836 | -0.21 ± 0.00263
x2 = 0.849 | -0.194 ± 0.00239
x2 = 0.862 | -0.177 ± 0.00239
x2 = 0.875 | -0.159 ± 0.00215
x2 = 0.889 | -0.142 ± 0.00191
x2 = 0.903 | -0.124 ± 0.00167
x2 = 0.916 | -0.107 ± 0.00143
x2 = 0.929 | -0.0906 ± 0.0012
x2 = 0.942 | -0.0736 ± 0.000956
x2 = 0.956 | -0.0557 ± 0.000956
x2 = 0.97 | -0.0373 ± 0.000717
x2 = 0.985 | -0.0186 ± 0.000478

CCCCCCC(C)=O [2-octanone] + CCCCCCCCO
[2]
Details | excess molar enthalpy [kcal/mol]
x2 = 0.015 | 0.0217 ± 0.000478
x2 = 0.03 | 0.0425 ± 0.000717
x2 = 0.045 | 0.0619 ± 0.000956
x2 = 0.059 | 0.0793 ± 0.0012
x2 = 0.072 | 0.0961 ± 0.0012
x2 = 0.085 | 0.111 ± 0.00143
x2 = 0.098 | 0.126 ± 0.00167
x2 = 0.111 | 0.139 ± 0.00191
x2 = 0.124 | 0.152 ± 0.00191
x2 = 0.137 | 0.165 ± 0.00215
x2 = 0.15 | 0.177 ± 0.00239
x2 = 0.162 | 0.188 ± 0.00239
x2 = 0.174 | 0.197 ± 0.00263
x2 = 0.186 | 0.207 ± 0.00263
x2 = 0.197 | 0.215 ± 0.00263
x2 = 0.206 | 0.228 ± 0.00287
x2 = 0.212 | 0.233 ± 0.00287
x2 = 0.218 | 0.237 ± 0.00311
x2 = 0.225 | 0.241 ± 0.00311
x2 = 0.232 | 0.246 ± 0.00311
x2 = 0.24 | 0.251 ± 0.00311
x2 = 0.248 | 0.256 ± 0.00335
x2 = 0.256 | 0.261 ± 0.00335
x2 = 0.266 | 0.266 ± 0.00335
x2 = 0.276 | 0.272 ± 0.00335
x2 = 0.283 | 0.275 ± 0.00359
x2 = 0.291 | 0.279 ± 0.00359
x2 = 0.299 | 0.283 ± 0.00359
x2 = 0.308 | 0.286 ± 0.00359
x2 = 0.317 | 0.29 ± 0.00359
x2 = 0.327 | 0.294 ± 0.00359
x2 = 0.337 | 0.298 ± 0.00382
x2 = 0.348 | 0.301 ± 0.00382
x2 = 0.36 | 0.305 ± 0.00382
x2 = 0.373 | 0.308 ± 0.00382
x2 = 0.383 | 0.31 ± 0.00382
x2 = 0.393 | 0.313 ± 0.00382
x2 = 0.404 | 0.315 ± 0.00406
x2 = 0.415 | 0.316 ± 0.00406
x2 = 0.428 | 0.318 ± 0.00406
x2 = 0.44 | 0.32 ± 0.00406
x2 = 0.454 | 0.321 ± 0.00406
x2 = 0.469 | 0.322 ± 0.00406
x2 = 0.484 | 0.322 ± 0.00406
x2 = 0.496 | 0.321 ± 0.00406
x2 = 0.509 | 0.321 ± 0.00406
x2 = 0.523 | 0.32 ± 0.00406
x2 = 0.537 | 0.318 ± 0.00406
x2 = 0.552 | 0.316 ± 0.00406
x2 = 0.567 | 0.313 ± 0.00382
x2 = 0.587 | 0.31 ± 0.00382
x2 = 0.602 | 0.305 ± 0.00382
x2 = 0.62 | 0.3 ± 0.00382
x2 = 0.64 | 0.293 ± 0.00359
x2 = 0.657 | 0.288 ± 0.00359
x2 = 0.674 | 0.281 ± 0.00359
x2 = 0.692 | 0.273 ± 0.00335
x2 = 0.711 | 0.263 ± 0.00335
x2 = 0.731 | 0.252 ± 0.00311
x2 = 0.752 | 0.24 ± 0.00311
x2 = 0.775 | 0.226 ± 0.00287
x2 = 0.799 | 0.209 ± 0.00263
x2 = 0.82 | 0.194 ± 0.00239
x2 = 0.841 | 0.176 ± 0.00215
x2 = 0.864 | 0.156 ± 0.00191
x2 = 0.888 | 0.133 ± 0.00167
x2 = 0.914 | 0.107 ± 0.00143
x2 = 0.941 | 0.0762 ± 0.0012
x2 = 0.97 | 0.0411 ± 0.000717

CCCCCCCC(=O)O [octanoic acid] + CCCCCCO
[2]
Details | excess molar enthalpy [kcal/mol]
x2 = 0.038 | 0.0373 ± 0.000717
x2 = 0.074 | 0.065 ± 0.000956
x2 = 0.106 | 0.0868 ± 0.0012
x2 = 0.137 | 0.105 ± 0.00143
x2 = 0.167 | 0.12 ± 0.00167
x2 = 0.18 | 0.132 ± 0.00167
x2 = 0.186 | 0.135 ± 0.00167
x2 = 0.193 | 0.138 ± 0.00191
x2 = 0.201 | 0.141 ± 0.00191
x2 = 0.209 | 0.144 ± 0.00191
x2 = 0.218 | 0.147 ± 0.00191
x2 = 0.228 | 0.151 ± 0.00191
x2 = 0.239 | 0.154 ± 0.00191
x2 = 0.251 | 0.157 ± 0.00191
x2 = 0.261 | 0.16 ± 0.00215
x2 = 0.273 | 0.162 ± 0.00215
x2 = 0.286 | 0.165 ± 0.00215
x2 = 0.3 | 0.167 ± 0.00215
x2 = 0.31 | 0.169 ± 0.00215
x2 = 0.322 | 0.17 ± 0.00215
x2 = 0.334 | 0.172 ± 0.00215
x2 = 0.347 | 0.173 ± 0.00215
x2 = 0.361 | 0.174 ± 0.00215
x2 = 0.377 | 0.175 ± 0.00215
x2 = 0.394 | 0.176 ± 0.00215
x2 = 0.407 | 0.176 ± 0.00215
x2 = 0.422 | 0.175 ± 0.00215
x2 = 0.437 | 0.175 ± 0.00215
x2 = 0.454 | 0.174 ± 0.00215
x2 = 0.472 | 0.173 ± 0.00215
x2 = 0.492 | 0.171 ± 0.00215
x2 = 0.508 | 0.168 ± 0.00215
x2 = 0.526 | 0.166 ± 0.00215
x2 = 0.544 | 0.163 ± 0.00215
x2 = 0.564 | 0.158 ± 0.00215
x2 = 0.586 | 0.154 ± 0.00191
x2 = 0.607 | 0.148 ± 0.00191
x2 = 0.629 | 0.143 ± 0.00191
x2 = 0.65 | 0.137 ± 0.00167
x2 = 0.672 | 0.13 ± 0.00167
x2 = 0.696 | 0.123 ± 0.00167
x2 = 0.722 | 0.114 ± 0.00143
x2 = 0.749 | 0.105 ± 0.00143
x2 = 0.773 | 0.0966 ± 0.0012
x2 = 0.798 | 0.0872 ± 0.0012
x2 = 0.825 | 0.0765 ± 0.000956
x2 = 0.853 | 0.0645 ± 0.000956
x2 = 0.884 | 0.0528 ± 0.000717
x2 = 0.91 | 0.0409 ± 0.000717
x2 = 0.938 | 0.0282 ± 0.000478
x2 = 0.968 | 0.0146 ± 0.000239

CCCCCCCC(=O)O [octanoic acid]
Details | mass density [kg/m3]
[1] | 906.02 ± 0.73

CCCCCCO [hexan-1-ol]
Details | mass density [kg/m3]
[1] | 815.21 ± 0.64

CN(C)C=O [dimethylformamide]
Details | mass density [kg/m3]
[1] | 944.34 ± 0.24
